Columns and labels:
DU-4475 = experiment: Antineoplastic activity against human DU4475 cells after 72 hrs by MTS reduction assay; assay type: functional, cell-based; conditions: DU-4475, 72 h
Candida albicans = experiment: Antifungal activity against amphotericin B-resistant Candida albicans after 12 to 15 hrs by alamar blue assay; assay type: functional, organism-based

Molecule `C=C1CC[C@H](Br)[C@@]2(C)CC[C@@H](Br)[C@@](C)(O)CC[C@@H](Br)C(C)(C)OC(=O)c3ccc(O)c(c3)C[C@H]12` [BROMOPHYCOLIDE H] has an IC50 (DU-4475) of 3.88 µM.
With `C=C1CC[C@H](Br)[C@@]2(C)CC[C@@H]3O[C@@]3(C)CC[C@@H](C(C)(C)O)OC(=O)c3ccc(O)c(c3)C[C@H]12` [BROMOPHYCOLIDE F] the IC50 (Candida albicans) was 240 µM.
`C=C1CC[C@H](Br)[C@@]2(C)CC[C@@H](Br)[C@@](C)(O)CC[C@H](O)C(C)(C)OC(=O)c3ccc(O)c(c3)C[C@H]12` [BROMOPHYCOLIDE I] showed an IC50 (Candida albicans) of 208 µM.
